Experimental data as given in publication PMC6364417, “Kinase inhibitor library screening identifies synergistic drug combinations effective in sensitive and resistant melanoma cells” (Journal of Experimental & Clinical Cancer Research : CR, 2019).

Tests used:
Assay in all cases: Kinase inhibitor library screening, PrestoBlue cell viability, 1 or 10 μM, 72 h
[1] = system: A375 cells (parental); conditions: for cell viability, A375 Parental, 1μΜ / cell viability, A375 Parental, 10μΜ / cell viability (kinase inhibitor library screening): 72 h, A375 Parental; for cell viability, A375 Parental, 1μΜ / cell viability, A375 Parental, 10μΜ: in %
Method: (§1) After 72 h of treatment, cell viability was assessed using the PrestoBlue Cell Viability Reagent (ThermoFisher Scientific). Measurements were performed with the CLARIOstar Monochromator microplate reader (BMG Labtech).
(§2) Kinase inhibitor library screening. […] Each cell line was treated in its sensitive form (parental), and also as 2 resistant derivatives, which were made resistant to either Vemurafenib (XP) or Dabrafenib (GP). Drugs were added at 2 different concentrations, 1 and 10 μM, for 72 h and cell viability was assessed using the PrestoBlue Cell Viability assay. Results are depicted as % viability compared to untreated cells. Each cell line was analyzed at least in duplicate. […] (XLSX 95 kb)

[2] = system: IGR37-GP cells (Dabrafenib-resistant); conditions: for cell viability, IGR37 GP, 10μΜ / cell viability, IGR37 GP, 1μΜ / cell viability (kinase inhibitor library screening): 72 h, IGR37 GP; for cell viability, IGR37 GP, 1μΜ: in %
Method: as §1, §2

[3] = system: 501Mel cells (parental); conditions: 72 h; for cell viability, 501Mel Parental, 1μΜ / cell viability, 501Mel Parental, 10μΜ: in %; for cell viability, 501Mel Parental, 1μΜ / cell viability, 501Mel Parental, 10μΜ / cell viability (kinase inhibitor library screening): 501Mel Parental
Method: as §1, §2

[4] = system: A375-XP cells (Vemurafenib-resistant); conditions: for cell viability, A375 XP, 1μΜ / cell viability, A375 XP, 10μΜ / cell viability (kinase inhibitor library screening): 72 h, A375 XP; for cell viability, A375 XP, 1μΜ / cell viability, A375 XP, 10μΜ: in %
Method: as §1, §2

[5] = system: 501Mel-GP cells (Dabrafenib-resistant); conditions: 72 h; for cell viability, 501Mel GP, 1μΜ / cell viability, 501Mel GP, 10μΜ: in %; for cell viability, 501Mel GP, 1μΜ / cell viability, 501Mel GP, 10μΜ / cell viability (kinase inhibitor library screening): 501Mel GP
Method: as §1, §2

[6] = system: IGR37 cells (parental); conditions: for cell viability, IGR37 Parental, 10μΜ / cell viability, IGR37 Parental, 1μΜ / cell viability (kinase inhibitor library screening): 72 h, IGR37 Parental; for cell viability, IGR37 Parental, 10μΜ / cell viability, IGR37 Parental, 1μΜ: in %
Method: as §1, §2

[7] = system: IGR37-XP cells (Vemurafenib-resistant); conditions: for cell viability, IGR37 XP, 10μΜ / cell viability, IGR37 XP, 1μΜ / cell viability (kinase inhibitor library screening): 72 h, IGR37 XP; for cell viability, IGR37 XP, 1μΜ: in %
Method: as §1, §2

[8] = system: A375-GP cells (Dabrafenib-resistant); conditions: for cell viability, A375 GP, 1μΜ / cell viability, A375 GP, 10μΜ / cell viability (kinase inhibitor library screening): 72 h, A375 GP; for cell viability, A375 GP, 1μΜ / cell viability, A375 GP, 10μΜ: in %
Method: as §1, §2

[9] = system: 501Mel-XP cells (Vemurafenib-resistant); conditions: 72 h; for cell viability, 501Mel XP, 1μΜ / cell viability, 501Mel XP, 10μΜ: in %; for cell viability, 501Mel XP, 1μΜ / cell viability, 501Mel XP, 10μΜ / cell viability (kinase inhibitor library screening): 501Mel XP
Method: as §1, §2

SMILES | cell viability, A375 Parental, 10μΜ ([1]; 10μΜ) | cell viability, IGR37 GP, 10μΜ ([2]; 10μΜ) [%] | cell viability, IGR37 GP, 1μΜ ([2]; 1μΜ) | cell viability, 501Mel Parental, 1μΜ ([3]; 1μΜ) | cell viability, 501Mel Parental, 10μΜ ([3]; 10μΜ) | cell viability, A375 XP, 1μΜ ([4]; 1μΜ) | cell viability, A375 XP, 10μΜ ([4]; 10μΜ) | cell viability, 501Mel GP, 1μΜ ([5]; 1μΜ) | cell viability, 501Mel GP, 10μΜ ([5]; 10μΜ) | cell viability, IGR37 Parental, 10μΜ ([6]; 10μΜ) | cell viability, IGR37 XP, 10μΜ ([7]; 10μΜ) [%] | cell viability, IGR37 XP, 1μΜ ([7]; 1μΜ) | cell viability, A375 GP, 1μΜ ([8]; 1μΜ) | cell viability, A375 GP, 10μΜ ([8]; 10μΜ) | cell viability, 501Mel XP, 1μΜ ([9]; 1μΜ) | cell viability, 501Mel XP, 10μΜ ([9]; 10μΜ) | also measured
CCN1CCN(Cc2ccc(-c3cc4c(N[C@H](C)c5ccccc5)ncnc4[nH]3)cc2)CC1 [AEE788 (NVP-AEE788)] | 70.3 | 82.6 | 94.0 | 103.7 | 1.2 | 105.5 | 70.7 | 114.3 | 1.2 | 87.9 | 25.4 | 82.4 | 110.2 | 49.2 | 105.3 | 0.239 | cell viability, A375 Parental, 1μΜ ([1]; 1μΜ): 108.2
N#C/C(=C\c1ccc(O)c(O)c1)C(=O)NCc1ccccc1 [AG-490] | 88.6 | 88.3 | – | 99.1 | 92.7 | 99.9 | 91.1 | 105.8 | 86.5 | – | 70.7 | 104.5 | – | 88.5 | 93.1 | 79.3 | cell viability, IGR37 Parental, 1μΜ ([6]; 1μΜ): 105.9
CC(C)(C)c1cc(C=C(C#N)C#N)cc(Br)c1O [AG-1024] | 86.3 | 76.8 | 96.1 | 98.8 | 98.3 | 106.8 | 89.1 | 109.0 | 85.4 | 96.2 | 46 | 95.7 | 98.0 | 86.9 | 99.5 | 85.0 | cell viability, A375 Parental, 1μΜ ([1]; 1μΜ): 99.7
COc1cc2ncnc(Nc3cccc(Cl)c3)c2cc1OC [AG-1478 (Tyrphostin AG-1478)] | 94.0 | 86.3 | 88.5 | 96.5 | 70.7 | 99.5 | 98.9 | 102.7 | 55.4 | 98.8 | 46.3 | 76.6 | 91.6 | 90.4 | 86.2 | 48.5 | cell viability, IGR37 Parental, 1μΜ ([6]; 1μΜ): 96.0
Cc1csc(-c2nnc(Nc3ccc(Oc4ncccc4-c4ccnc(N)n4)cc3)c3ccccc23)c1 [AMG 900] | – | – | – | – | – | – | – | – | – | – | – | – | – | – | – | – | cell viability (kinase inhibitor library screening) ([1]; 10μΜ): 30.4%; cell viability (kinase inhibitor library screening) ([1]; 1μΜ): 46.4%; cell viability (kinase inhibitor library screening) ([2]; 10μΜ): 79.9%; cell viability (kinase inhibitor library screening) ([3]; 1μΜ): 87.5%; cell viability (kinase inhibitor library screening) ([3]; 10μΜ): 70.0%; cell viability (kinase inhibitor library screening) ([4]; 1μΜ): 52.6%; cell viability (kinase inhibitor library screening) ([4]; 10μΜ): 47.5%; cell viability (kinase inhibitor library screening) ([5]; 1μΜ): 90.4%; cell viability (kinase inhibitor library screening) ([5]; 10μΜ): 60.6%; cell viability (kinase inhibitor library screening) ([6]; 1μΜ): 94.6%; cell viability (kinase inhibitor library screening) ([6]; 10μΜ): 78.1%; cell viability (kinase inhibitor library screening) ([7]; 1μΜ): 100.0%; cell viability (kinase inhibitor library screening) ([7]; 10μΜ): 66.5%; cell viability (kinase inhibitor library screening) ([8]; 1μΜ): 44.4%; cell viability (kinase inhibitor library screening) ([8]; 10μΜ): 34.7%; cell viability (kinase inhibitor library screening) ([9]; 1μΜ): 77.2%; cell viability (kinase inhibitor library screening) ([9]; 10μΜ): 59.1%
O=C1NC(=O)[C@@H](c2cn3c4c(cccc24)CCC3)[C@@H]1c1c[nH]c2ccccc12 [ARQ 197 (Tivantinib)] | – | – | – | – | – | – | – | – | – | – | – | – | – | – | – | – | cell viability (kinase inhibitor library screening) ([1]; 10μΜ): 29.2%; cell viability (kinase inhibitor library screening) ([1]; 1μΜ): 26.4%; cell viability (kinase inhibitor library screening) ([2]; 1μΜ): 85.1%; cell viability (kinase inhibitor library screening) ([2]; 10μΜ): 73.0%; cell viability (kinase inhibitor library screening) ([3]; 1μΜ): 52.2%; cell viability (kinase inhibitor library screening) ([3]; 10μΜ): 26.1%; cell viability (kinase inhibitor library screening) ([4]; 1μΜ): 34.5%; cell viability (kinase inhibitor library screening) ([4]; 10μΜ): 24.5%; cell viability (kinase inhibitor library screening) ([5]; 1μΜ): 40.8%; cell viability (kinase inhibitor library screening) ([5]; 10μΜ): 25.6%; cell viability (kinase inhibitor library screening) ([6]; 1μΜ): 79.8%; cell viability (kinase inhibitor library screening) ([6]; 10μΜ): 16.2%; cell viability (kinase inhibitor library screening) ([7]; 1μΜ): 69.4%; cell viability (kinase inhibitor library screening) ([7]; 10μΜ): 43.0%; cell viability (kinase inhibitor library screening) ([8]; 1μΜ): 30.6%; cell viability (kinase inhibitor library screening) ([8]; 10μΜ): 32.9%; cell viability (kinase inhibitor library screening) ([9]; 1μΜ): 25.8%; cell viability (kinase inhibitor library screening) ([9]; 10μΜ): 10.6%
C[C@@H]1COC(Nc2ccc3ncnc(Nc4ccc(OCc5nccs5)c(Cl)c4)c3c2)=N1 [ARRY334543] | – | – | – | – | – | – | – | – | – | – | – | – | – | – | – | – | viability at 1 µM ([1]; Homo sapiens, A-375, 72 h, read-out: cell viability, A375 Parental, 1μΜ): 103%; viability at 10 µM ([1]; Homo sapiens, A-375, 72 h, read-out: cell viability, A375 Parental, 10μΜ): 89.3%; viability at 1 µM ([2]; Homo sapiens, IGR-37, 72 h, read-out: cell viability, IGR37 GP, 1μΜ): 89.4%; viability at 10 µM ([2]; Homo sapiens, IGR-37, 72 h, read-out: cell viability, IGR37 GP, 10μΜ): 33%; viability at 1 µM ([3]; Homo sapiens, read-out: cell viability, 501Mel Parental, 1μΜ): 97.9%; viability at 10 µM ([3]; Homo sapiens, read-out: cell viability, 501Mel Parental, 10μΜ): 87.3%; viability at 1 µM ([4]; Homo sapiens, A-375, 72 h, read-out: cell viability, A375 XP, 1μΜ): 107%; viability at 10 µM ([4]; Homo sapiens, A-375, 72 h, read-out: cell viability, A375 XP, 10μΜ): 85.8%; viability at 1 µM ([5]; Homo sapiens, read-out: cell viability, 501Mel GP, 1μΜ): 101%; viability at 10 µM ([5]; Homo sapiens, read-out: cell viability, 501Mel GP, 10μΜ): 86.4%; viability at 1 µM ([6]; Homo sapiens, IGR-37, 72 h, read-out: cell viability, IGR37 Parental, 1μΜ): 102%; viability at 10 µM ([6]; Homo sapiens, IGR-37, 72 h, read-out: cell viability, IGR37 Parental, 10μΜ): 85.9%; viability at 1 µM ([7]; Homo sapiens, IGR-37, 72 h, read-out: cell viability, IGR37 XP, 1μΜ): 71.6%; viability at 10 µM ([7]; Homo sapiens, IGR-37, 72 h, read-out: cell viability, IGR37 XP, 10μΜ): 11.7%; viability at 1 µM ([8]; Homo sapiens, A-375, 72 h, read-out: cell viability, A375 GP, 1μΜ): 101%; viability at 10 µM ([8]; Homo sapiens, A-375, 72 h, read-out: cell viability, A375 GP, 10μΜ): 83.2%; viability at 1 µM ([9]; Homo sapiens, read-out: cell viability, 501Mel XP, 1μΜ): 118%; viability at 10 µM ([9]; Homo sapiens, read-out: cell viability, 501Mel XP, 10μΜ): 57.2%
